Results: patent publication CN117899087A, “与g蛋白偶联型雌激素受体结合的治疗乳腺癌的中药提取物及其应用” (Wuxi Hospital of Traditional Chinese Medicine, priority 2024, dated 2024)
Entries after “also recorded” stand apart in the source; their conditions may differ.

Key:
[1] = biological target: T1, GPER-1 overexpressing 293T cells [GPER-1过表达细胞, 293T细胞系] (Homo sapiens, UniProt Q99527); assay: UPLC-QTOF/MS screening of CGD components binding to GPER-1 overexpressing cells; details: GPER gene overexpressing cell line
T1 construct: expressed in transfected cells; host or cells: 293T (HEK-293T), lentiviral recombinant plasmid system
T1 sequence (Q99527 whole entry): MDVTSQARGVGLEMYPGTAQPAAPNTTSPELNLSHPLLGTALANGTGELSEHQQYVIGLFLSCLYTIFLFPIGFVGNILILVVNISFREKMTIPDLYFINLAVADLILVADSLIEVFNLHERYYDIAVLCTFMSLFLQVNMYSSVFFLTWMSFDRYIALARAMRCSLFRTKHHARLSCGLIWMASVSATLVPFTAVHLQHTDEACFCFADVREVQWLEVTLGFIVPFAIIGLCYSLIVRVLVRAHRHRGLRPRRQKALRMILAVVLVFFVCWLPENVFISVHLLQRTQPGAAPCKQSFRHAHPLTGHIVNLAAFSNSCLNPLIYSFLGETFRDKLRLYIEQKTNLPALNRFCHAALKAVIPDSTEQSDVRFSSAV

[2] = biological target: T2, GPER target protein [GPER靶蛋白] (Homo sapiens, UniProt Q99527); assay: Cellular thermal shift analysis (CESTA) with Western blot; type: binding; details: 10 μM, 24 h, GPER overexpressing HEK-293T
T2 construct: expressed in transfected cells; host or cells: 293T (HEK-293T), lentiviral recombinant plasmid system
T2 sequence (Q99527 whole entry): as above

[3] = test system: triple-negative breast cancer MDA-MB-231 cells [三阴性乳腺癌MDA-MB-231细胞]; assay: MTT assay of MDA-MB-231 cell proliferation; type: cell-based; details: MDA-MB-231, 24 h
GPER = GPER (Homo sapiens, UniProt Q99527); assay: GPER activity (conclusion, no separate method); type: biochemical
Chain of GPER (Q99527 whole entry, species assumed): as the sequence (Q99527 whole entry) above

[4] = test system: retinoid X receptor [类视黄醇X受体]; details: cited from earlier work

SMILES: CC(C)=CCC[C@@H](C(=O)O)[C@H]1[C@H](O)C[C@@]2(C)C3=CC[C@H]4C(C)(C)[C@@H](O)CC[C@]4(C)C3=CC[C@]12C [16α-羟基松苓新酸, 16α-Hydroxydehydrotrametenolic acid]
- binding to GPER overexpressing cell line [1]: 能与GPER基因过表达细胞系相结合
- binding ability to GPER (CESTA) [2]: 与GPER具有较强的结合能力; also recorded: 结合能力尤为突出
- abundance of GPER target protein after heating vs vehicle ([2]; 55 to 70°C): 丰度高于用载体处理的蛋白质的丰度
- stability of target protein ([2]; 55 to 70°C): 增加了靶蛋白的稳定性; also recorded: 能促进GPER靶蛋白的热稳定
- inhibition of triple-negative breast cancer cell proliferation at 10 μmol/L ([3]; 10 μmol/L): 具有抑制三阴乳腺癌细胞增殖的能力
- inhibition of cancer cell proliferation at 40 μmol/L ([3]; 40 μmol/L): 接近最大抑制能力
- inhibition of triple-negative breast cancer cell proliferation ([3]; 0.5-100 μmol/L, Fig. 4): 具有显著的抑制三阴乳腺癌细胞增殖的能力
- inhibition at 40 μmol/L compared with 100 μmol/L ([3]; 40 vs 100 μmol/L): 和100μmol/L浓度相当
- concentration dependence of cancer cell inhibition ([3]; increasing concentration from 10 μmol/L): 抑制癌细胞的能力随浓度增高而增加
- GPER activity (GPER): 提高GPER活性
- agonism at retinoid X receptor [4]: 天然选择性激动剂
